# Laboratory results as given in patent publication US12043599B2, “Herbicidal compounds” (SYNGENTA PARTICIPATIONS AG, priority 2018, dated 2024).
# Tests used:
# Assay type in all cases: in vivo
# Settings in all cases: 250 g/h, evaluated after 13 days
# [1] = system: Alopecurus myosuroides (ALOMY); assay: Pre-emergence herbicidal glasshouse test, percentage damage
# In short: (§1)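 A single spray at 250 g/h was given either to soil one day after sowing or to seedlings after eight days' growth. Vehicle was acetone/water (50:50) with 0.5% Tween 20. Thirteen days on, damage was rated in 20% bands, 1 (0-19%) to 5 (80-100%).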
# Avena fatua (AVEFA) [2] = assay: as above
# In short: as §1
# [3] = system: Echinochloa crus-galli (ECHCG); assay: as above
# In short: as §1
# Lolium perenne (LOLPE) [4] = assay: as above
# In short: as §1
# Setaria faberi (SETFA) [5] = assay: as above
# In short: as §1
# Setaria faberi (SETFA) [6] = assay: Post-emergence herbicidal glasshouse test, percentage damage
# In short: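 Wheat, barley and Setaria faberi were sprayed post-emergence after 8 days' growth (24/16 °C, 14 h light, 65% humidity) with compound in acetone/water (50:50) containing 0.5% Tween 20, at the indicated rates. On wheat, compounds were also applied with cloquintocet-mexyl at 50 g/ha. Damage was scored after 13 days on a five-point scale (5=80-100% to 1=0-19%).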
# [7] = system: Alopecurus myosuroides (ALOMY); assay: as above
# In short: as §1
# Avena fatua (AVEFA) [8] = assay: as above
# In short: as §1
# [9] = system: Echinochloa crus-galli (ECHCG); assay: as above
# In short: as §1
# Lolium perenne (LOLPE) [10] = assay: as above
# In short: as §1
Compound,ALOMY PRE percentage damage (five point scale) [1],AVEFA PRE percentage damage (five point scale) (Avena fatua (AVEFA) [2]),ECHCG PRE percentage damage (five point scale) [3],LOLPE PRE percentage damage (five point scale) (Lolium perenne (LOLPE) [4]),SETFA PRE percentage damage (five point scale) (Setaria faberi (SETFA) [5]),SETFA POST percentage damage (five point scale) (Setaria faberi (SETFA) [6]),ALOMY POST percentage damage (five point scale) [7],AVEFA POST percentage damage (five point scale) (Avena fatua (AVEFA) [8]),ECHCG POST percentage damage (five point scale) [9],LOLPE POST percentage damage (five point scale) (Lolium perenne (LOLPE) [10])
CC#Cc1cc(C)c(C2=C(OC(=O)OC)CC3(CCN(C(=O)NC(C)=O)CC3)CC2=O)c(C)c1 [Compound P53],4 (4=60-79%),5 (5=80-100%),5 (5=80-100%),4 (4=60-79%),5 (5=80-100%),5 (5=80-100%),5 (5=80-100%),5 (5=80-100%),5 (5=80-100%),5 (5=80-100%)
"CC#Cc1cc(C)c(C2C(=O)CC3(CCN(C(=O)COC(F)F)CC3)CC2=O)c(C)c1 [Compound A197, 3-[2-(difluoromethoxy)acetyl]-9-(2,6-dimethyl-4-prop-1-ynyl-phenyl)-3-azaspiro[5.5]undecane-8,10-dione]",5 (5=80-100%),5 (5=80-100%),5 (5=80-100%),5 (5=80-100%),5 (5=80-100%),5 (5=80-100%),5 (5=80-100%),5 (5=80-100%),5 (5=80-100%),5 (5=80-100%)
CC#Cc1cc(C)c(C2C(=O)CC3(CCN(C(=O)Cc4csc(C(F)F)n4)CC3)CC2=O)c(C)c1 [Compound A194],4 (4=60-79%),5 (5=80-100%),5 (5=80-100%),5 (5=80-100%),5 (5=80-100%),5 (5=80-100%),4 (4=60-79%),5 (5=80-100%),5 (5=80-100%),5 (5=80-100%)
CC#Cc1cc(C)c(C2=C(OC(C)=O)CC3(CCN(C(N)=O)CC3)CC2=O)c(C)c1 [Compound P9],5 (5=80-100%),4 (4=60-79%),5 (5=80-100%),5 (5=80-100%),5 (5=80-100%),5 (5=80-100%),5 (5=80-100%),5 (5=80-100%),5 (5=80-100%),5 (5=80-100%)
CC#Cc1cc(C)c(C2C(=O)CC3(CCN(C(=O)Cc4cccnn4)CC3)CC2=O)c(C)c1 [Compound A103],4 (4=60-79%),4 (4=60-79%),5 (5=80-100%),4 (4=60-79%),5 (5=80-100%),5 (5=80-100%),5 (5=80-100%),5 (5=80-100%),5 (5=80-100%),5 (5=80-100%)
CC#Cc1cc(C)c(C2C(=O)CC3(CCN(C(=O)COCCCl)CC3)CC2=O)c(C)c1 [Compound A200],5 (5=80-100%),4 (4=60-79%),5 (5=80-100%),5 (5=80-100%),5 (5=80-100%),5 (5=80-100%),5 (5=80-100%),5 (5=80-100%),5 (5=80-100%),5 (5=80-100%)
